Results as given in patent publication US20100323975A1, “THERAPEUTIC AGENT FOR CEREBRAL ISCHEMIC INJURY” (OTSUKA PHARMACEUTICAL FACTORY, INC., priority 2007, published 2010).
Peptide text beside a SMILES is read from it.

Tests used:
[1] = test system: model of middle cerebral artery occlusion and subsequent reperfusion (cerebral ischemic injury); assay: Infarction rate and cerebral edema rate in model of middle cerebral artery occlusion and subsequent reperfusion (Test Example 5); format: in vivo, Wistar male rats; details: Production Example 4 injection (0.64 mol/L), caudal vein 60 mL/kg/hr for 10 minutes, immediately after and 6 hours after reperfusion; 120 min occlusion; 24 hours after reperfusion; FIG. 2
Source text: Approximately 7-week-old Wistar male rats were used. The method of Koizumi et al. (Nou-socchu (Cerebral Apoplexy), Vol. 8, pp. 1-8, 1986) was applied to the rats under halothane anesthesia, so as to produce models of middle cerebral artery occlusion and subsequent reperfusion. Specifically, each rat was fixed under natural aspiration conditions under anesthesia with gas (initial anesthesia: performed in room air containing 3% halothane; continuous anesthesia: performed in room air containing 1% halothane), and the neck of the rat was then subjected to median incision. […]
On the day after the administration of the agent (24 hours after cerebral ischemia-reperfusion), a test animal was anesthetized with ether, and the brain was then excised. […] A slice of brain section was placed, with a surface to be measured down, into each well of a 12-well plate, which had been filled with a 2% TTC solution prepared by dissolving 2,3,5-triphenyltetrazolium chloride (TTC) in a phosphate buffered saline. […] Thus, the area of an infarct on the measurement surface of each brain section (the site in which brain tissue was considered to be necrosed) was measured, and the obtained value was then multiplied by the thickness of the brain section, so as to obtain the volume of an infarct in each brain section. […]

[2] = L-histidine concentration in blood after intravenous administration (Test Example 2); details: male, Wistar, rat, in vivo, 15 min
Method: (§1) 7- to 9-week-old Wistar male rats were divided into the following 8 administration groups. The number of rats in each group was set at 4. […]
The therapeutic agent for cerebral ischemic injury obtained in Production Example 2 was diluted by a factor of 2, and the thus diluted solution was administered into the caudal vein of each rat at a rate of 60 mL/kg/hr for 10 minutes. […]
(§2) L-histidine was added to water for injection purpose, and acetic acid was further added thereto, so as to dissolve L-histidine in the solution. The obtained solution was adjusted to pH 6.0 with a sodium hydroxide aqueous solution. The obtained injection solution (L-histidine concentration: 10% (W/V)) was administered into the caudal vein of each rat at a rate of 60 mL/kg/hr for 10 minutes.
as §2, with “citric” for “acetic”, “minutes. […]” for “minutes.”
(§3) After administration of the agent, blood was collected from each rat at regular time intervals, and the concentration of L-histidine (monomer) in blood was then measured using a high speed amino acid analyzer L-8800A (manufactured by Hitachi High-Technologies Corporation). […] In addition, the body temperature, blood pressure, and cardiac rate of each test animal were measured during the period from before administration of the agent until after the administration of the agent, and at the same time, the appearance of each test animal was observed, so as to examine the presence or absence of side effects caused by administration of the agent. The L-histidine concentration in blood was measured 15 minutes after the administration of the agent, and the presence or absence of side effects caused by such administration of the agent was examined.

Wistar male rats = assay: Identification of side effects after intravenous administration (Test Example 2); details: rat, in vivo
Method: as §1
L-histidine hydrochloride was dissolved in water for injection purpose, and the obtained solution was then adjusted to pH 6.0 with a sodium hydroxide aqueous solution. The obtained injection solution (L-histidine concentration: 10% (W/V)) was administered into the caudal vein of each rat at a rate of 60 mL/kg/hr for 10 minutes.
as §2
as §2, with “citric” for “acetic”
β-alanyl-L-histidine was added to water for injection purpose, and the obtained solution was then adjusted to pH 7 with hydrochloric acid. The obtained injection solution (L-histidine concentration: 10% (W/V)) was administered into the caudal vein of each rat at a rate of 60 mL/kg/hr for 10 minutes. […]
as §3

[3] = Solubility in water at 25° C.; format: physicochemical

NCC(=O)N[C@@H](Cc1c[nH]cn1)C(=O)O [glycyl-L-histidine] (H-Gly-His-OH)
Cerebral edema rate compared with control group [1]: remarkably suppressed
Infarction rate compared with control group [1]: remarkably suppressed
L-histidine concentration in blood (mean value) [2]: 6.2 mM
Side effects (Wistar male rats): None
solubility [3]: ≥ 3500 mM
